Assay results: patent EP4435060A1, “SILICON PHTHALOCYANINE AND TRIBENZOPHTHALOCYANINE DYES AND THEIR USE IN DIAGNOSIS AND THERAPY” (Albert-Ludwigs-Universität Freiburg, priority 2023, dated 2024)

Columns and labels:
[1] = UV/VIS absorption spectra; type: physicochemical; conditions: for bathochromic shift compared to the absorption maximum of Li-Cor-A: versus λmax = 680 nm; for λmax (UV/VIS spectrum): in H2O, 5 - 16 µM (Figure 13) or 4 - 15 µM (Figure 14)
prostate cancer cells = assay: PIT controls on the prostate cancer cell lines of Figure 16E (free dye; conjugate without irradiation); type: cell-based, human; conditions: equimolar concentrations of free dye, 32 J/cm^2 red light, in words
Method: 2.5*10^5 cells were seeded per well in 35 mm cell culture dishes (Thermo Fischer Scientific) and cultivated for 24 h in the incubator (37°C, 5% CO2). On the next day, cell culture medium was removed and fresh medium containing the appropriate treatment (medium, 10 µg/ml antibody, 10 µg/ml conjugate or the equimolar amount of free dye) was administered to the cells. After incubation (37°C, 5% CO2, 24h), the cells were washed with 1x PBS and irradiated with a red light-emitting diode (LED), which emits light at λmax = 680 nm (L690-66-60, Marubeni, Tokyo, Japan) or a LED, which emits light at (λmax = 780 nm) (L780-66-60-550) at various mean irradiation doses. Power densities were quantified with an optical power meter (PM 100, Thorlabs, Newton, USA). After 24h, cell viability was analyzed using the vital dye erythrosine b (Logos Biosystems, Gyeonggi-do, South Korea) and the Neubauer Counting Chamber. Significance of the data was calculated with the Student's t test (unpaired, parametric with Welch's […]) using the GraphPad Prism 7 software (GraphPad Software Inc., San Diego, USA).

Substance	absorption maximum λmax in the UV/VIS spectrum [1]	bathochromic shift compared to the absorption maximum of Li-Cor-A [1]	λalmost max (UV/VIS spectrum) ([1]; 4 - 15 µM in H2O, pathlength = 1 cm)	λmax (UV/VIS spectrum) ([1]; pathlength = 1 cm)	viability of irradiated cells incubated with free dye (prostate cancer cells)
2-(4-[4-({[7-oxo-7-(perfluorophenoxy) heptyl]ca rbamoyl} oxy) but-1-yn-1-yl]phenoxy)-29,31-bis[(3,4,5-tris{[1-(sodium 3-sulfonatopropyl)-1,2,3-triazol-4-yl]methoxy}phenyl)methoxy]silanediyl-29H,31H-silicon phthalocyanine [WB692-LB2]	692 nm	12 nm	–	–	–
2-[({5-[(1H-2,5-Dioxopyrrol-1-yl)pent-1-yl]amino]carbonylamino)}but-1-yn-yl)phenoxy]-29,31-bis[(3,4,5-tris{[1-(sodium 3-sulfonatopropyl)-1,2,3-triazol-4-yl]methoxy}-phenyl)methoxy]silanediyl-29H,31H-silicon tribenzophthalocyanine [WB795-CB1]	795 nm	115 nm	–	–	–
2-({[({4-[(2,5-Dihydro-1H-2,5-dioxopyrrol-1-yl)oxy]-4-oxobut-1-yl}amino)-carbonyloxy]but-1-ynyl}phenoxy)-29,31-bis[(3,4,5-tris{[1-(sodium 3-sulfonatopropyl)-1,2,3-tri-azol-4-yl]methoxy}phenyl)methoxy]silanediyl-29H,31H-silicon tribenzophthalocyanine [WB795-LB1]	795 nm	115 nm	–	–	–
2-[({5-[(1H-2,5-Dioxopyrrol-1-yl)pent-1-yl]amino]carbonylamino)}but-1-yn-yl)phenoxy]-29,31-bis[(3,4,5-tris{[1-(sodium 3-sulfonatopropyl)-1,2,3-triazol-4-yl]methoxy}-phenyl)methoxyjsilanediyl-29H,31H-silicon phthalocyanine [WB692-CB2]	692 nm	12 nm	–	–	–
2-(4-Iodophenoxy)-29,31-bis[(3,4,5-tris{[1-(sodium 3-sulfonatopropyl)-1,2,3-triazol-4-yl]methoxy}phenyl)methoxy]silanediyl-29H,31H-silicon tribenzophthalocyanine [compound 31]	–	–	765 nm	795 nm	–
2-({[({6-[(2,5-Dihydro-1H-2,5-dioxopyrrol-1-yl)oxy]-6-oxohex-1-yl}amino)-carbonyloxy]but-1-ynyl}phenoxy)-29,31-bis[(3,4,5-tris{[1-(sodium 3-sulfonatopropyl)-1,2,3-tri-azol-4-yl]methoxy}phenyl)methoxy]silanediyl-29H,31H-silicon phthalocyanine [WB692-LB1]	692 nm	12 nm	–	–	–
2-[({5-[(1H-2,5-Dioxopyrrol-1-yl)pent-1-yl]amino]carbonyloxy)}but-1-yn-yl)phenoxy]-29,31-bis[(3,4,5-tris{[1-(sodium 3-sulfonatopropyl)-1,2,3-triazol-4-yl]methoxy}-phenyl)methoxyjsilanediyl-29H,31H-silicon phthalocyanine [WB692-CB1]	692 nm	12 nm	–	692 nm	remained alive
